From US20100249048A1, “BETA GLYCOLIPIDS FOR THE TREATMENT OF CALCIFICATION RELATED DEGENERATIVE DISORDERS” (priority 2007, published 2010)

B1: PTH: peptide hormone, the most important regulator of calcium and phosphate metabolism (peptide, UniProt P01270 32-115, looked up)
Parathyroid hormone: SVSEIQLMHNLGKHLNSMERVEWLRKKLQDVHNFVALGAPLAPRDAGSQRPRKKEDNVLVESHEKSLGEADKADVNVLTKAKSQ
modifications: Parathyroid hormone

Legend:
[1] = tested on: high Adenine, high phosphate rat model; assay: MSCT assessment of valve calcification (Agatston score), foscarnet study; assay type: in vivo; settings: 5 mg/kg foscarnet i.p. (group B) vs diet group A, ninth week, P=0.05
Experimental: MSCT scanning without contrast was performed on all rats (Brilliance, Philips Medical Systems, Groningen, Netherlands) on the ninth week. Study parameters were: 120 KVp, 300 mAs, slice thickness 0.67 mm, increment 0.3 mm. The scan was analyzed by an operator blinded to the study groups, on an off-line CT workstation. The Agatston Score was calculated by multiplying the area of a calcified lesion with a weighted CT attenuation score dependent on the maximal CT attenuation (HU) within a lesion as previously described [Agatston, A. S., et al. Journal of the American College of Cardiology 15:827-832 (1990)]. In order to asses the effect of foscarnet on treating AVC in vivo, the high Adenine, high phosphate rat model was used. Three different groups (10 rats each) were fed daily with the Adenine diet (diet group) for 6 weeks (Group A). Group B (n=9) followed the same protocol and was also treated with 5 mg/kg foscarnet administered intraperitoneally (i.p.). The control group C, received daily chew. Renal function tests, electrolytes were followed for nine weeks. Multislice computed tomography (MSCT) was performed at the ninth week. Calcium scores were calculated using the Agatston score.

[2] = tested on: IL-6; assay: IL-6 levels in supernatants of myofibroblasts; assay type: cell-based, rat; settings: myofibroblasts treated with foscarnet
Text: (§1) In order to investigate whether the beneficial effect of foscarnet on the calcification process also affects immunomodulatory parameters, the inventors the effect of foscarnet on the levels of cytokines that are known as having a role in osteoblast transformation and maturation. Therefore, levels of TNF-α and IL-6 were next measured in supernatants of myofibroblasts treated with foscarnet. […] IL-6 levels.

[3] = tested on: TNF-α; assay: TNF-α levels in supernatants of myofibroblasts; assay type: cell-based, rat; settings: myofibroblasts treated with foscarnet; 69 pg/ml without
Text: as §1

[4] = tested on: valve myofibroblasts; assay: Von Kossa staining of cultured valve myofibroblasts (calcification / mineralization); assay type: cell-based, rat; settings: for osteogenic differentiation and calcification of valve myofibroblasts (Von kossa staining): 1, 10 or 100 μg/ml, fourteen days
Experimental: The present inventors have now further explored the calcification process in an attempt to specifically identify targets for interfering and prevention thereof. Therefore, the inventors next examined myofibroblasts obtained from the aortic valve of wild type rats, cultured in 24 well plates.
Myofibroblasts were incubated with PTH ([…]), or phosphate, 1, 10 or 100 μg/ml) for fourteen days. As shown by the Von kossa (calcium) staining presented by FIG. 7, the phosphate treatment, but not the PTH, induces osteogenic differentiation and calcification of valve myofibroblasts.
To test the possibility that inhibition of PIT1 would decrease mineralization, valve myofibroblasts were incubated with 10 μg/ml phosphate, or with phosphate and 0.5 mM foscarnet, the specific PIT1 inhibitor for 7 days.

Row | Molecule | AVC, Agatston score (MSCT) [1] | AVC, Agatston score (MSCT) ([1]; listed as Forscarnet) | IL-6 levels in supernatants [2] | TNF-α levels in supernatants [3] [pg/mL] | cell mineralization (Von kossa staining) ([4]; 10 μg/ml phosphate plus 0.5 mM foscarnet, 7 days) | osteogenic differentiation and calcification of valve myofibroblasts (Von kossa staining) [4]
1 | O=C(O)P(=O)(O)O [foscarnet] | 21 | significant decrease | no effect | 5 | completely inhibited | –
2 | phosphate | – | – | – | – | – | induces
3 | B1 | – | – | – | – | – | not
